Measured values as given in US4826847A, “Beta-blocking oxindole derivatives” (Boehringer Mannheim GmbH, priority 1984, dated 1989).
Counter-ions that a name gives are not always drawn. Like-named read-outs stand apart in the source and are kept apart here.

Legend:
livers = test: denitration rate relative to isosorbide-5-mononitrate (Vrel): NO2 freed in perfusate of re-perfused rat livers; settings: rat liver perfusion 4 min, 5×10^-5 M/l, NO2 determined in the perfusate; high values = fast denitration
[1] = system: increase of the frequency through isoprenaline; test: β-blocking effectiveness: inhibition of isoprenaline-induced increase of the frequency in rabbits; assay type: in vivo, rabbit; settings: Oryctolagus cuniculus, iv, read-out: ID 50 fcor (dose which causes an inhibition of 50% of the increase of the frequency through isoprenaline)
[2] = rabbits, i.v., isoprenaline 1 mcg/kg i.v.

Compound | Vrel (denitration rate in relation to isosorbide-5-mononitrate) (livers) | ED50 [1, 2] [mg/kg] | ED50 [1] [mg/kg]
CC(CCO[N+](=O)[O-])NCC(O)COc1ccc2c(c1)CC(=O)N2 (centres unmarked) [1 (c), 5-[2-hydroxy-3-(1-methyl-3-nitratopropylamino)-propoxy]-indolinone fumarate] | 1.77 | 5.08 | 
Cc1ccccc1C=C1C(=O)Nc2cccc(OCC(O)CNC(C)CCO[N+](=O)[O-])c21 (centres unmarked) [BV 6, 4-[2-hydroxy-3-(1-methyl-3-nitratopropylamino)-propoxy]-3-(2-methylbenzylidene)-indolinon fumarate] | 0.74 | > 4 | 
CC(CC(C)O[N+](=O)[O-])NCC(O)COc1cccc2c1CC(=O)N2 (centres unmarked) [1 (b), 4-[2-hydroxy-3-(1,3-dimethyl-3-nitratopropylamino)-propoxy]-indolinone fumarate] | 2.02 | 0.0038 | 
CC(CCO[N+](=O)[O-])NCC(O)COc1cccc2c1C(=Cc1nc[nH]n1)C(=O)N2 (centres unmarked) [4 (d), 4-[2-hydroxy-3-(1-methyl-3-nitratopropylamino)-propoxy]-3-(1,2,4-triazol-3-yl)-methyleneindolinone fumarate] | 1.00 | 0.0096 | 
CC(=O)O.CC(CCO[N+](=O)[O-])NCC(O)COc1cccc2c1C(=Cc1cc(=O)[nH]c(=O)[nH]1)C(=O)N2 (centres unmarked) [4 (f), 4-[2-hydroxy-3-(1-methyl-3-nitratopropylamino)-propoxy]-3-(uracil-4-yl)-methylene-indolinone acetate] | 1.80 |  | 
CC(CCO[N+](=O)[O-])NCC(O)COc1cccc2c1CC(=O)N2 (centres unmarked) [Example 1, 4-[2-hydroxy-3-(1-methyl-3-nitratopropylamino)-propoxy]-indolinone benzoate] | 1.60 | 0.0066 | 
CC(C)(CCO[N+](=O)[O-])NCC(O)COc1cccc2c1C(=Cc1ccn[nH]1)C(=O)N2 (centres unmarked) [4 (g), 4-[2-hydroxy-3-(1,1-dimethyl-3-nitratopropylamino)-propoxy]-3-(pyrazol-5-yl)-methylene-indolinone hemifumarate] | 1.59 | 0.013 | 
COc1cccc(C=C2C(=O)Nc3cccc(OCC(O)CNC(C)CCO[N+](=O)[O-])c32)c1 (centres unmarked) [BV 9, 4-[2-hydroxy-3-(1-methyl-3-nitratopropylamino)-propoxy]-3-(3-methoxybenzylidene)-indolinone acetate] | 0.60 | 0.765 | 
CC(CCO[N+](=O)[O-])NCC(O)COc1ccc2c(c1)C(C(C)C)C(=O)N2 (centres unmarked) [1 (f), 5-[2-hydroxy-3-(1-methyl-3-nitratopropylamino)-propoxy]-3-isopropylindolinone] | 3.01 |  | 
CC(C)(CNCC(O)COc1cccc2c1CC(=O)N2)CO[N+](=O)[O-] (centres unmarked) [BV 40, 4-[2-hydroxy-3-(2,2-dimethyl-3-nitratopropylamino)-propoxy]-indolinone hemifumarate] | 3.51 | 0.69 | 
CC(C)(CCO[N+](=O)[O-])NCC(O)COc1cccc2c1CC(=O)N2 (centres unmarked) [1 (a), 4-[2-hydroxy-3-(1,1-dimethyl-3-nitratopropylamino)-propoxy]-indolinone hemifumarate] | 1.23 | 0.015 | 
O=[N+]([O-])O[C@@H]1CO[C@H]2[C@@H]1OC[C@@H]2O [Isosorbide-5-mononitrate, isosorbide-5-mononitrate, reference compound] | 0.86 |  | 
CC(CCO[N+](=O)[O-])NCC(O)COc1cccc2c1C(=Cc1ccco1)C(=O)N2 (centres unmarked) [4 (a), 4-[2-hydroxy-3-(1-methyl-3-nitratopropylamino)-propoxy]-3-(furan-2-yl)-methylene-indolinone fumarate] | 0.65 | 0.0096 | 
CC(CCO[N+](=O)[O-])NCC(O)COc1cccc2c1C(=Cc1ccc([N+](=O)[O-])cc1)C(=O)N2 (centres unmarked) [BV 20, 4-[2-hydroxy-3-(1-methyl-3-nitratopropylamino)-propoxy]-3-(4-nitrobenzylidene)-indolinone] | 0.71 |  | 0.113
CC(CCO[N+](=O)[O-])NCC(O)COc1cccc2c1C(=Cc1ccccc1)C(=O)N2 (centres unmarked) [2 (c), 4-[2-hydroxy-3-(1-methyl-3-nitratopropylamino)-propoxy]-3-benzylideneindolinone fumarate] | 0.59 | 1.97 | 
CC(CCO[N+](=O)[O-])NCC(O)COc1ccc2c(c1)NC(=O)C2 (centres unmarked) [1 (d), 6-[2-hydroxy-3-(1-methyl-3-nitratopropylamino)-propoxy]-indolinone fumarate] | 1.81 |  | 
CC(CCO[N+](=O)[O-])NCC(O)COc1cccc2c1C(=Cc1ccn[nH]1)C(=O)N2 (centres unmarked) [Example 2, 4-[2-Hydroxy-3-(1-methyl-3-nitratopropylamino)-propoxy]-3-(pyrazol-5-yl)-methyleneindolinone benzoate] | 1.12 | 0.011 | 
CC(CCO[N+](=O)[O-])NCC(O)COc1cccc2c1C(=Cc1ccc(C#N)cc1)C(=O)N2 (centres unmarked) [4 (j), 4-[2-hydroxy-3-(1-methyl-3-nitratopropylamino)-propoxy]-3-(4-cyanobenzylidene)-indolinone hemifumarate] | 0.49 |  | 
Cc1cc(C=C2C(=O)Nc3cccc(OCC(O)CNC(C)CCO[N+](=O)[O-])c32)[nH]n1 (centres unmarked) [BV 43, 4-[2-hydroxy-3-(1-methyl-3-nitratopropylamino)-propoxy]-3-(3-methylpyrazol-5-yl)-methyleneindolinone] | 0.83 | 0.0096 | 
CC(CCO[N+](=O)[O-])NCC(O)COc1cccc2c1C(=Cc1cccs1)C(=O)N2 (centres unmarked) [4 (b), 4-[2-hydroxy-3-(1-methyl-3-nitratopropylamino)-propoxy]-3-(thiophen-2-yl)-methylene-indolinone fumarate] | 0.54 | 0.0276 | 
CC(C)NCC(O)COc1cccc2[nH]ccc12 (centres unmarked) [Pindolol, reference compound] |  | 0.104 | 
CC(CCO[N+](=O)[O-])NCC(O)COc1cccc2c1NC(=O)C2 (centres unmarked) [1 (e), 7-[2-hydroxy-3-(1-methyl-3-nitratopropylamino)-propoxy]-indolinone fumarate] | 1.79 |  | 
CC(CCO[N+](=O)[O-])NCC(O)COc1cccc2c1C(=Cc1cccc(Cl)c1)C(=O)N2 (centres unmarked) [BV 4, 4-[2-hydroxy-3-(1-methyl-3-nitratopropylamino)-propoxy]-3-(3-chlorobenzylidene)-indolinone fumarate] | 1.22 | 1.09 | 
CC(CCO[N+](=O)[O-])NCC(O)COc1cccc2c1C(=Cc1ccccn1)C(=O)N2 (centres unmarked) [2 (b), 4-[2-hydroxy-3-(1-methyl-3-nitratopropylamino)-propoxy]-3-(pyridin-2-yl)-methylene-indolinone fumarate] | 0.86 | 0.172 | 
CC(CCO[N+](=O)[O-])NCC(O)COc1ccc2c(c1)C(C(C)c1ccccc1)C(=O)N2 (stereo not drawn) [1 (g), 5-[2-hydroxy-3-(1-methyl-3-nitratopropylamino)-propoxy]-3-(α-methylbenzyl)-indolinone hemifumarate] | 0.70 | 5.31 | 
Cc1cc(C=C2C(=O)Nc3cccc(OCC(O)CNCC(C)(C)CO[N+](=O)[O-])c32)[nH]n1 (centres unmarked) [4 (k), 4-[2-hydroxy-3-(2,2-dimethyl-3-nitratopropylamino)-propoxy]-3-(3-methylpyrazol-5-yl)-methyleneindolinone] | 1.88 |  | 
CC(CC(C)O[N+](=O)[O-])NCC(O)COc1cccc2c1C(=Cc1ccn[nH]1)C(=O)N2 (centres unmarked) [4 (h), 4-[2-hydroxy-3-(1,3-dimethyl-3-nitratopropylamino)-propoxy]-3-pyrazol-5-yl)-methylene-indolinone fumarate] | 1.39 | 0.039 | 
CC(CCO[N+](=O)[O-])NCC(O)COc1cccc2c1C(=Cc1ccc[nH]1)C(=O)N2 (centres unmarked) [2 (a), 4-[2-hydroxy-3-(1-methyl-3-nitratopropylamino)-propoxy]-3-(pyrrol-2-yl)-methylene-indolinone hemifumarate] | 2.40 |  | 
CC(CCO[N+](=O)[O-])NCC(O)COc1cccc2c1C(C)(C)C(=O)N2 (centres unmarked) [BV 2, 4-[2-hydroxy-3-(1-methyl-3-nitratopropylamino)-propoxy]-3,3-dimethylindolinone fumarate] | 2.99 |  | 
CC(=C1C(=O)Nc2ccc(OCC(O)CNC(C)CCO[N+](=O)[O-])cc21)c1ccccc1 (stereo not drawn) [1 (i), 5-[2-hydroxy-3-(1-methyl-3-nitratopropylamino)-propoxy]-3-(α-methylbenzylidene)-indolinone hemifumarate] | 0.81 | 3.36 | 
